Assay results taken from patent US4758555A, “Method for treating convulsions and epilepsy with organic copper compounds” (priority 1986, dated 1988).
“Also recorded” adds a separate entry of the source.

Experiments:
[1] = Sleep time / hypnosis or sedation; assay type: in vivo; settings: Table IX, intraperitoneal, 65 mg/kg; for Average Sleep Time: 5 animals
Protocol: In Phase I identification of anticonvulsant activity, test compounds were given intraperitoneally (IP) at 30, 100, 300 and, in some cases, 600 milligrams per kilogram (mg/kg) of body weight and protection against Maximal Electroshock and/or Metrazol-induced seizures was determined 30 minutes, 4 hours, or later. […] Subsequently the routine protocol was modified and certain of the test compounds (see Tables, infra) re-evaluated following subcutaneous (SC) injection at periods of up to 8 hours post injection. Subcutaneous administration can be helpful in determining whether or not hypnotic activity can be distinguished from anticonvulsant activity based upon the decreased rate of absorption associated with this route of administration as opposed to the more rapid rate of absorption associated with IP administration.

[2] = Maximal Electroshock Seizure Test; assay type: in vivo, male Carworth Farms #1 mice or Sprague-Dawley rats; settings: for Protection Against Seizure: Table IX, maximal electroshock, intraperitoneal, 65 mg/kg, 5 animals; for Anticonvulsant activity, Maximal Electroshock: Table VI; for Lowest active dose, MES (Phase I): Table V
[3] = Subcutaneous Pentylenetetrazol (Metrazol) Seizure Threshold Test; assay type: in vivo, male Carworth Farms #1 mice or Sprague-Dawley rats; settings: for Anticonvulsant activity, Metrazol: Table VI; for Protection against Metrazol-induced seizures (in words): running text; for Lowest active dose, Metrazol (Phase I): Table V
[4] = Lethality / acute toxicity (LD50 in 24 hours); settings: for Lethality (in words): dose and time given in the source; for Doses causing death in some of the test groups: in vivo
Description: Test compounds were either dissolved in 0.9% saline, or suspended in either 30% polyethylene glycol 400 in 0.9% saline or 0.2% suspending agent like polyoxyethylene glycol or Tween 80 in 0.9% saline prior to injection into male Carworth Farms #1 mice or Sprague-Dawley rats.
In Phase I identification of anticonvulsant activity, test compounds were given intraperitoneally (IP) at 30, 100, 300 and, in some cases, 600 milligrams per kilogram (mg/kg) of body weight and protection against Maximal Electroshock and/or Metrazol-induced seizures was determined 30 minutes, 4 hours, or later. […] Subsequently the routine protocol was modified and certain of the test compounds (see Tables, infra) re-evaluated following subcutaneous (SC) injection at periods of up to 8 hours post injection.
All statistics were obtained by probit analyses.

[5] = Anticonvulsant activity, both or unspecified seizure models; assay type: in vivo, male Carworth Farms #1 mice or Sprague-Dawley rats; settings: for Time of peak activity (Phase II): Table X, IP, challenge time
[6] = 50, 100 and 300 mg/kg at 0.75, 1.5 and 3 hours post subcutaneous injection at a site different from Metrazol; cited from earlier work
[7] = Rotating rod neurotoxicity; settings: dose and time given in the source
[8] = known from literature; cited from earlier work
[9] = SC at site different from injection of Metrazol
[10] = Table X, IP, at time of peak activity
[11] = Table X, IP, challenge time 30 min
[12] = Table X, IP, challenge time 4 hrs
[13] = Table X, SC, challenge time 30 min
[14] = Table X, SC, challenge time 4 hrs

## CCC1(CCC(C)C)C(=O)NC(=O)NC1=O [Na amobarbital, sodium (Na) amobarbital, reference compound]
[1]
  Average Sleep Time: 0 min
[2]
  Protection Against Seizure: 0 Percent protected

## CC(=O)Nc1ccc(C(=O)[O-])c(O)c1.CC(=O)Nc1ccc(C(=O)[O-])c(O)c1.[Cu+2] [Cu(II)(4-acetylaminosalicylate)2]
[3]; Table II, IP
  Anticonvulsant activity, Metrazol (Phase I): I
[4]
  Lethality (in words): Lethal at 100 mg/kg at 4 hours
[5]; running text
  Anticonvulsant activity (in words): effective in preventing seizures

## Copper acetate [Cu(II)2 (acetate)4]
[3]; [9]
  Anticonvulsant activity, Metrazol: I
[3]; intragastric
  Anticonvulsant activity, Metrazol: I
[3]; intraperitoneal (copper acetate: site different from Metrazol)
  Lowest dose with activity against Metrazol-induced seizures: 5 mg/kg
[3]
  Protection against Metrazol-induced seizures (in words): effective in inhibiting Metrazol-induced seizures
[5]; running text
  Anticonvulsant activity (in words): active when injected at the same site as the site of Metrazol injection; also recorded: lack of anticonvulsant activity
[5]; running text, listed as copper acetate
  Anticonvulsant activity (in words): inactive when administered orally
[2]; IP
  Anticonvulsant activity, Maximal Electroshock: I
[2]; SC, same injection site used for injection of Metrazol
  Anticonvulsant activity, Maximal Electroshock: I
[2]; intragastric
  Anticonvulsant activity, Maximal Electroshock: I
[6]
  Anticonvulsant activity reported previously (in words): no anticonvulsant activity

## CCC1(CCC(C)C)C(=O)[N-]C(=O)NC1=O.CCC1(CCC(C)C)C(=O)[N-]C(=O)NC1=O.[Cu+2] [Cu(II)(amobarbital)2]
[1]
  Sleep (in words): All animals slept
  Average Sleep Time: 16 min
[5]; in vivo
  Potency or effectiveness relative to a comparator (in words): more potent anticonvulsant than sodium (Na) amobarbital
[2]
  Protection Against Seizure: 100 Percent protected

## Cu(II)2 (phenylacetate)4
[7]
  Rotating rod toxicity (in words): Rotating rod toxicity at 300 mg/kg
[3]
  Protection against Metrazol-induced seizures (in words): effective in protecting against Metrazol-induced seizures

## O=C(O)c1ccccc1[O-].O=C(O)c1ccccc1[O-].[Cu+2] [Cu(II)(salicylate)2]
[3]; Phase II, SC
  ED50 for protection against Metrazol-induced seizures: 38 mg/kg
[3]; SC, 100 mg/kg, Phase II
  Time of peak effect, inhibition of Metrazol-induced seizures: 2 h
[3]
  Protection against Metrazol-induced seizures (in words): rapid onset of protection against the Metrazol-induced seizure which decreases over the extrapolated period of 7 hours
[4]; 24-hour, Phase II
  LD50: 441 mg/kg
[5]; running text
  Anticonvulsant activity (in words): effective at the higher doses studied and for prolonged periods of up to 4 hours
[2]; Phase II, SC
  ED50 for protection against Maximal Electroshock-induced seizures: 360 mg/kg
[2]; SC, 600 mg/kg, Phase II
  Time of peak effect, inhibition of Maximal Electroshock induced seizures: 7 h
[2]; SC, 600 mg/kg, at 24 hours, Phase II
  Inhibition of Maximal Electroshock-induced seizure: 37%
[2]; Table II, SC
  Anticonvulsant activity, Maximal Electroshock (Phase I): I
[2]; running text
  Protection against Maximal Electroshock-induced seizures (in words): onset of protection against Maximal Electroshock-induced seizure was slower but the activity was prolonged over the 24-hour period; also recorded: inactive in protecting against the Maximal Electroshock-induced seizure in routine Phase I studies; also recorded: active in protecting against this seizure when higher doses were used and the activity was evaluated at different time periods

## O=C([O-])c1ccc([N+](=O)[O-])cc1O.O=C([O-])c1ccc([N+](=O)[O-])cc1O.[Cu+2] [Cu(II)(4-nitrosalicylate)2]
[4]
  Doses causing death in some of the test groups: higher than 100 mg/kg
[5]; running text
  Anticonvulsant activity (in words): effective in preventing seizures
[2]; Table II, IP
  Anticonvulsant activity, Maximal Electroshock (Phase I): I

## [Cl][Cu][Cl] [copper chloride]
[6]
  Anticonvulsant activity reported previously (in words): no anticonvulsant activity

## Cc1ncc(CO)c(C=NC(C(=O)[O-])C(C)O)c1[O-].O.O.[Cu+2] [Cu(II)Pyridoxylidene-L-threoninate(H2 O)2]
[3]; IP, challenge time 30 min
  Lowest active dose, Metrazol (Phase I): 30 mg/kg of body weight
[3]; IP, challenge time 4 hrs
  Lowest active dose, Metrazol (Phase I): 30 mg/kg of body weight
[5]; running text
  Anticonvulsant activity (in words): more effective but only protected against the Metrazol-induced seizure
[2]; IP, challenge time 30 min
  Lowest active dose, MES (Phase I): I
[2]; IP, challenge time 4 hrs
  Lowest active dose, MES (Phase I): I

## O=C(O)c1ccccc1O [salicylate]
[8]
  Convulsions / CNS toxicity at high doses: cause convulsions at high doses

## CCC1(c2ccccc2)C(=O)[N-]C(=O)NC1=O.CCC1(c2ccccc2)C(=O)[N-]C(=O)NC1=O.[Cu+2].c1ccncc1.c1ccncc1 [Cu(II)(Phenobarbital)2 (pyridine)2]
[3]; [10]
  ED50 for inhibition of seizures, Metrazol (Phase II): 9 mg/kg
[3]; [11]
  Lowest effective dose, Metrazol (Phase I): 30 milligrams per kilogram of bod
[3]; [12]
  Lowest effective dose, Metrazol (Phase I): 30 milligrams per kilogram of bod
[3]; [13]
  Lowest effective dose, Metrazol (Phase I): I
[3]; [14]
  Lowest effective dose, Metrazol (Phase I): 30 milligrams per kilogram of bod
[5]
  Time of peak activity (Phase II): 2 h
[2]; [10]
  ED50 for inhibition of seizures, MES (Phase II): 17 mg/kg
[2]; [11]
  Lowest effective dose, MES (Phase I): 100 milligrams per kilogram of bod
[2]; [12]
  Lowest effective dose, MES (Phase I): 100 milligrams per kilogram of bod
[2]; [13]
  Lowest effective dose, MES (Phase I): I
[2]; [14]
  Lowest effective dose, MES (Phase I): 30 milligrams per kilogram of bod

## Cu(II) Salicylidene-L-valinate
[4]
  Lethality (in words): Lethal at higher doses
[4]; listed as salicylidene-L-valinate complex
  Lethality (in words): caused lethality at higher doses
[2]; Table IV, IP
  Anticonvulsant activity, Maximal Electroshock (Phase I): I
[2]; Table IV, SC
  Anticonvulsant activity, Maximal Electroshock (Phase I): I

## CCC1(CCC(C)C)C(=O)NC(=O)NC1=O [Amobarbital, reference compound]
[3]; Mus musculus, 0.5 h, read-out: Lowest effective dose, Metrazol (Phase I)
  minimal effective dose: 100 mg/kg
[3]; Mus musculus, ip, read-out: ED50 for inhibition of seizures, Metrazol (Phase II)
  ED50: 53 mg/kg
[3]; [12]
  Lowest effective dose, Metrazol (Phase I): I
[5]
  Time of peak activity (Phase II): 0.25 h
[2]; Mus musculus, 0.5 h, read-out: Lowest effective dose, MES (Phase I)
  minimal effective dose: 30 mg/kg
[2]; Mus musculus, ip, read-out: ED50 for inhibition of seizures, MES (Phase II)
  ED50: 45 mg/kg
[2]; [12]
  Lowest effective dose, MES (Phase I): I

## C1CCc2nnnn2CC1.[Cl-].[Cl-].[Cu+2] [Cu(II)(Metrazol)Cl2]
[7]
  Rotating rod toxicity (in words): no rotating rod toxicity at doses up to 600 mg/kg
[5]; running text
  Anticonvulsant activity (in words): some anticonvulsant activity when injected at a site different from the site of Metrazol injection
[2]; IP
  Anticonvulsant activity, Maximal Electroshock: I
[2]; [9]
  Anticonvulsant activity, Maximal Electroshock: I

## CC(=O)CC(C)=NCCN=C(C)CC(C)=O.[Cu] [Cu(II) Bisacetylacetonethyleneimine]
[7]; listed as bisacetylacetonethyleneimine complex
  Rotating rod toxicity (in words): rotating rod toxicity, which may also have been due to hypnotic activity, was found at the higher doses studied
[5]; running text
  Anticonvulsant activity (in words): effective in preventing both Maximal Electroshock and Metrazol-induced seizures

## Cc1ncc(CO)c(C=NCC(=O)[O-])c1[O-].Cc1ncc(CO)c(C=NCC(=O)[O-])c1[O-].O.O.O.[Cu+2].[Cu+2] [Cu(II)Pyridoxylideneglycinate(H2 O)1.5]
[3]; IP, challenge time 30 min
  Lowest active dose, Metrazol (Phase I): 100 mg/kg of body weight
[3]; IP, challenge time 4 hrs
  Lowest active dose, Metrazol (Phase I): I
[5]; running text
  Anticonvulsant activity (in words): protected against both types of seizure
[2]; IP, challenge time 30 min
  Lowest active dose, MES (Phase I): 300 mg/kg of body weight
[2]; IP, challenge time 4 hrs
  Lowest active dose, MES (Phase I): I

## Cc1ncc(CO)c(C=N[C@@H](CO)C(=O)[O-])c1[O-].O.[Cu+2] [Cu(II)Pyridoxylidene-L-serinate(H2 O)]
[3]; IP, challenge time 30 min
  Lowest active dose, Metrazol (Phase I): 100 mg/kg of body weight
[3]; IP, challenge time 4 hrs
  Lowest active dose, Metrazol (Phase I): 100 mg/kg of body weight
[5]; running text
  Anticonvulsant activity (in words): more effective but only protected against the Metrazol-induced seizure
[2]; IP, challenge time 30 min
  Lowest active dose, MES (Phase I): I
[2]; IP, challenge time 4 hrs
  Lowest active dose, MES (Phase I): I

## Cu(II)oxazepam
[3]; [11]
  Lowest effective dose, Metrazol (Phase I): 1 milligrams per kilogram of bod
[3]; [12]
  Lowest effective dose, Metrazol (Phase I): 10 milligrams per kilogram of bod
[5]
  Onset and duration of anticonvulsant action (in words): more prolonged in its action against Metrazol induced seizures
[5]; running text
  Anticonvulsant activity (in words): protected against both types of seizure
[2]; [11]
  Lowest effective dose, MES (Phase I): 10 milligrams per kilogram of bod
[2]; [12]
  Lowest effective dose, MES (Phase I): I

## CC[C@H](C)[C@H](N)C(=O)[O-].CC[C@H](C)[C@H](N)C(=O)[O-].[Cu+2] [Cu(II)(L-isoleucinate)2]
[4]
  Lethality (in words): Lethal at higher doses
[5]; listed as isoleucine complex
  Anticonvulsant activity (in words): inhibited both the Maximal Electroshock and Metrazol-induced seizures in these Phase I tests
[5]; running text
  Anticonvulsant activity (in words): found to have anticonvulsant activity

## Cu(II)α-methyl-α-phenylsuccinimide(H2 O)0.75
[3]; [11]
  Lowest effective dose, Metrazol (Phase I): 100 milligrams per kilogram of bod
[3]; [12]
  Lowest effective dose, Metrazol (Phase I): 100 milligrams per kilogram of bod
[3]; [13]
  Lowest effective dose, Metrazol (Phase I): 30 milligrams per kilogram of bod
[3]; [14]
  Lowest effective dose, Metrazol (Phase I): 600 milligrams per kilogram of bod
[5]; running text
  Anticonvulsant activity (in words): effective in preventing both types of seizure with rapid onsets of action and prolonged durations of action following subcutaneous and intraperitoneal administration
[2]; [11]
  Lowest effective dose, MES (Phase I): 100 milligrams per kilogram of bod
[2]; [12]
  Lowest effective dose, MES (Phase I): I
[2]; [13]
  Lowest effective dose, MES (Phase I): 30 milligrams per kilogram of bod
[2]; [14]
  Lowest effective dose, MES (Phase I): 100 milligrams per kilogram of bod

## Nc1ccc(C(=O)[O-])c(O)c1.Nc1ccc(C(=O)[O-])c(O)c1.[Cu+2] [Cu(II)(4-aminosalicylate)2]
[4]
  Doses causing death in some of the test groups: higher than 300 mg/kg
  Lethality (in words): Lethal at higher doses
[5]; running text
  Anticonvulsant activity (in words): effective in preventing seizures
[2]; Table II, IP
  Anticonvulsant activity, Maximal Electroshock (Phase I): I
